We go through six molecules from ChEMBL document CHEMBL4339221, “Investigating the Anticancer Activity of Isatin/Dihydropyrazole Hybrids” (ACS Med Chem Lett, 2019).

Where only a bound is given, the exact number is not on record here.

Data set [1] relates to A549. Put plainly: Antiproliferative activity against human A549 cells assessed as cell growth at 10 uM incubated for 72 hrs by MTT assay relative to untreated control. It counts as functional. Particulars: A549, 72 h, read-out: Activity. Background: Formazan colour is commonly taken as a measure of viable cells.
The nature of data set [2]: Antiproliferative activity against human IGR-39 cells assessed as cell growth at 10 uM incubated for 72 hrs by MTT assay relative to untreated control. The format is functional. Particulars: IGR-39, 72 h, read-out: Activity.
In data set [3] the test system is U-87 MG. The data set can be described thus: Antiproliferative activity against human U87 cells assessed as cell growth at 10 uM incubated for 72 hrs by MTT assay relative to untreated control. The format is functional, U-87MG ATCC. The note with it: read-out: Activity.
Data set [4] concerns MDA-MB-231. Put plainly: Antiproliferative activity against human MDA-MB-231 cells assessed as cell growth at 10 uM incubated for 72 hrs by MTT assay relative to untreated control. The format is functional. The note with it: MDA-MB-231, 72 h, read-out: Activity.
Data set [5] has as its system MCF7. Put plainly: Antiproliferative activity against human MCF7 cells assessed as cell growth at 10 uM incubated for 72 hrs by MTT assay relative to untreated control. Particulars: MCF7, 72 h, read-out: Activity. The format is functional.
The subject of data set [6] is BT-474. Put plainly: Antiproliferative activity against human BT474 cells assessed as cell growth at 10 uM incubated for 72 hrs by MTT assay relative to untreated control. The format is functional. The note with it: BT-474, 72 h, read-out: Activity.
The subject of data set [7] is BXPC-3. Put plainly: Antiproliferative activity against human BxPC3 cells assessed as cell growth at 10 uM incubated for 72 hrs by MTT assay relative to untreated control. The format is functional. The note with it: BXPC-3, 72 h, read-out: Activity.
The test system of data set [8] is SK-OV-3. Put plainly: Antiproliferative activity against human SKOV3 cells assessed as cell growth at 10 uM incubated for 72 hrs by MTT assay relative to untreated control. The format is functional. Particulars: SK-OV-3, 72 h, read-out: Activity.
The test system of data set [9] is NCI-H1299. The data set can be described thus: Antiproliferative activity against human NCI-H1299 cells assessed as cell growth at 10 uM incubated for 72 hrs by MTT assay relative to untreated control. It counts as functional. Particulars: NCI-H1299, 72 h, read-out: Activity.
A short description of data set [10]: Antiproliferative activity against human NHFB cells assessed as cell growth at 10 uM incubated for 72 hrs by MTT assay relative to untreated control. It counts as cell-based. The note with it: read-out: Activity.
Data set [11] relates to A549. The data set can be described thus: Antiproliferative activity against human A549 cells assessed as reduction in cell growth incubated for 72 hrs by MTT assay. The format is functional, cell-based. The note with it: A549, 72 h.
A short description of data set [12]: Antiproliferative activity against human IGR-39 cells assessed as reduction in cell growth incubated for 72 hrs by MTT assay. It counts as functional, cell-based. The note with it: IGR-39, 72 h.
For data set [13], the system named is U-87 MG. Put plainly: Antiproliferative activity against human U87 cells assessed as reduction in cell growth incubated for 72 hrs by MTT assay. The format is functional, cell-based, U-87MG ATCC.
Data set [14] has as its system MCF7. The data set can be described thus: Antiproliferative activity against human MCF7 cells assessed as reduction in cell growth incubated for 72 hrs by MTT assay. The format is functional, cell-based. Particulars: MCF7, 72 h.
Data set [15] has as its system BXPC-3. The data set can be described thus: Antiproliferative activity against human BxPC3 cells assessed as reduction in cell growth incubated for 72 hrs by MTT assay. The format is functional, cell-based. The note with it: BXPC-3, 72 h.
The nature of data set [16]: Antiproliferative activity against human NHFB cells assessed as reduction in cell growth incubated for 72 hrs by MTT assay. The format is cell-based.
Data set [17] has as its system A549. Put plainly: Induction of apoptosis in human A549 cells at 0.5 times antiproliferative EC50 incubated for 72 hrs by Hoechst 33342 and propidium iodide staining based inverted fluorescent microscopy relative to untreated control. The format is functional.
A short description of data set [18]: Induction of apoptosis in human IGR-39 cells at 0.5 times antiproliferative EC50 incubated for 72 hrs by Hoechst 33342 and propidium iodide staining based inverted fluorescent microscopy relative to untreated control. The format is functional.
The test system of data set [19] is U-87 MG. The data set can be described thus: Induction of apoptosis in human U87 cells at 0.5 times antiproliferative EC50 incubated for 72 hrs by Hoechst 33342 and propidium iodide staining based inverted fluorescent microscopy relative to untreated control. It counts as functional, U-87MG ATCC.
Data set [20] has as its system A549. Put plainly: Induction of necrosis in human A549 cells at 0.5 times antiproliferative EC50 incubated for 72 hrs by Hoechst 33342 and propidium iodide staining based inverted fluorescent microscopy relative to untreated control. It counts as functional.
Data set [21] in a line: Induction of necrosis in human IGR-39 cells at 0.5 times antiproliferative EC50 incubated for 72 hrs by Hoechst 33342 and propidium iodide staining based inverted fluorescent microscopy relative to untreated control. The format is functional.
Data set [22] has as its system U-87 MG. Put plainly: Induction of necrosis in human U87 cells at 0.5 times antiproliferative EC50 incubated for 72 hrs by Hoechst 33342 and propidium iodide staining based inverted fluorescent microscopy relative to untreated control. The format is functional, U-87MG ATCC.
The test system of data set [23] is BT-474. The data set can be described thus: Antiproliferative activity against human BT474 cells assessed as reduction in cell growth incubated for 72 hrs by MTT assay. Particulars: BT-474, 72 h. It counts as functional, cell-based.
Data set [24] concerns NCI-H1299. Put plainly: Antiproliferative activity against human NCI-H1299 cells assessed as reduction in cell growth incubated for 72 hrs by MTT assay. The format is functional, cell-based. The note with it: NCI-H1299, 72 h.
Data set [25] concerns SK-OV-3. The data set can be described thus: Antiproliferative activity against human SKOV3 cells assessed as reduction in cell growth incubated for 72 hrs by MTT assay. The note with it: SK-OV-3, 72 h. The format is functional, cell-based.

As usually defined, the EC50 is the concentration needed to bring the measured effect to its halfway point. With `COc1ccc(C2CC(c3ccc4ccccc4c3)=NN2C2=NC(=O)/C(=C3/C(=O)Nc4ccc(C)cc43)S2)cc1` (configuration not stated), the growth at 10 µM worked out at 6.21% in data set [1]; 0.46% in data set [2]; 14.2% in [3]; 10.8% in data set [4]; 4.81% in [5]; 40.2% in [6]. Besides, the growth at 10 µM in [7] was 5.02%; in data set [8], 66.6%; in [9], 19.3%. Further, the viability at 72 h, 10 µM in data set [10] is 11.8%. For the same molecule, the EC50 worked out at 180 nM in [11]; 140 nM in data set [12]; 230 nM in [13]; 310 nM in data set [14]; 100 nM in data set [15]; 150 nM in data set [16]. In addition, the Activity in data set [17] is given as 13.5 - 27%; in data set [18] it was 13.5 - 27%; in [19], 13.5 - 27%; in data set [20], <1%; in [21], <1%; in [22] it was <1%.

For `COc1ccc(C2CC(c3cccs3)=NN2C2=NC(=O)/C(=C3/C(=O)Nc4ccc(C)cc43)S2)cc1` (configuration not stated), the growth at 10 µM in data set [1] turned out to be 22.7%; in [2] it was 1.37%; in [3], 12.1%; in [4] it was 76.9%; in data set [5] it was 112%; in data set [6] it was 95%. Moreover, the growth at 10 µM was found to be 62.4% in data set [7], 38.4% in data set [8] and 84% in [9]. In addition, in data set [10], the viability at 72 h, 10 µM came to 48.3%.

Consider `COc1ccc(C2CC(c3cccs3)=NN2C2=NC(=O)/C(=C3/C(=O)Nc4ccc(Cl)cc43)S2)cc1` (configuration not stated), for which the growth at 10 µM came out at 22.4% in data set [1]; 0.9% in data set [2]; 4.35% in [3]; 80.4% in data set [4]; 112% in data set [5]; 86.8% in [6]. Further, the growth at 10 µM in data set [7] worked out at 59.6%; in [8], 56.6%; in data set [9], 117%. Moreover, in data set [10], the viability at 72 h, 10 µM was found to be 47.5%. Moreover, the EC50 in data set [12] worked out at 2970 nM; in [13], 5760 nM.

Take `COc1ccc(C2CC(c3ccc4ccccc4c3)=NN2C2=NC(=O)/C(=C3/C(=O)Nc4ccc(OC)cc43)S2)cc1` (configuration not stated): the growth at 10 µM in data set [1] was determined as 3.93%; in [2] it was 1.2%; in data set [3] it was 1.13%; in data set [4], 9.67%; in data set [5], 3.64%; in data set [6] it was 49.1%. The growth at 10 µM in data set [7] amounted to 5.13%; in data set [8] it was 41.4%; in [9] it was 9.85%. Besides, the viability at 72 h, 10 µM in data set [10] amounted to 13.3%. In addition, the EC50 in data set [11] amounted to 730 nM; in data set [12], 500 nM; in data set [13], 670 nM; in [14], 270 nM; in data set [23], 240 nM; in data set [15], 100 nM. The EC50 in data set [24] was found to be 150 nM; in data set [16], 270 nM.

For the molecule `COc1ccc(C2CC(c3ccc4ccccc4c3)=NN2C2=NC(=O)/C(=C3/C(=O)Nc4ccc(Cl)cc43)S2)cc1` (configuration not stated), the growth at 10 µM in data set [1] worked out at 3.84%; in [2], 1.3%; in data set [3], 1.59%; in data set [4] it was 6.87%; in data set [5] it was 3.81%; in data set [6], 24.2%. Moreover, the growth at 10 µM in data set [7] worked out at 5.62%; in data set [8] it was 6.69%; in data set [9] it was 9.76%. For the same molecule, the viability at 72 h, 10 µM in [10] worked out at 14.4%. In addition, the EC50 in [11] is 340 nM; in data set [12] it was 330 nM; in [13], 380 nM; in [14], 70 nM; in data set [23] it was 90 nM; in data set [15] it was 60 nM. The EC50 turned out to be 60 nM in data set [25] and 10 nM in [24]. For the same molecule, the Activity was 13.5 - 27% in data set [17]; 13.5 - 27% in [18]; 13.5 - 27% in data set [19]; <1% in data set [20]; <1% in [21]; <1% in [22].

For `CCN(CC)CCNC(=O)c1c(C)[nH]c(/C=C2\C(=O)Nc3ccc(F)cc32)c1C` [SUNITINIB], the EC50 came to 960 nM in [14]; 900 nM in [23]; 2500 nM in data set [15]; 1360 nM in [25]; 1540 nM in data set [24]; 300 nM in data set [16].
